The text below walks through data of patent publication US9334265B2, “3-amino-pyrazole derivatives useful against tuberculosis” (GLAXO GROUP LIMITED, priority 2010, dated 2016).

Assay [1] relates to Mycobacterium tuberculosis H37Rv. The experiment in a line: Mycobacterium tuberculosis H37Rv Inhibition Assay (Whole Cell Assay). The assay is classed as cell-based. The conditions noted are these: ATCC 25618 / H37Rv, H37Rv strain (ATCC25618), Middlebrook 7H9, six days at 37° C., resazurin fluorescence after 48 hours. (In general: Alamar Blue is a resazurin reagent that responds to reducing activity.)

The next assay concerns the target T1, InhA (Mycobacterium tuberculosis, UniProt P9WGR1).
T1 construct: made in house; host or cells: E. coli
As to the kind of experiment: Mycobacterium tuberculosis InhA Inhibition Assay (Enzyme Assay). The conditions noted are these: 5 nM InhA, 50 μM DDCoA, 50 μM NADH, PIPES buffer pH 6.8, initial velocities of NADH consumption. The assay is classed as biochemical. The method, then:
InhA is able to reduce 2-trans enoyl-CoA esters with concomitant oxidation of NADH to NAD^+. The assay format is based on the kinetic detection of NADH consumption.
Assay for InhA inhibition is carried out with mycobacterium recombinant protein expressed and purified form E. coli. Standard assay conditions for the determination of kinetic constants and inhibitors activity use 5 nM of InhA, 50 μM of Dodecenoyl-CoA synthesized and purified as described by Quémard et al (DDCoA) and 50 μM of NADH as substrates, and it is carried out in 30 mM PIPES buffer pH 6.8, containing 0.05% of BSA. […] Triclosan is used as positive control in every experiment. One μl of compounds is added to the wells containing 25 μl of the DDCoA+NADH mix, the reaction is started by adding 50 μl of the enzyme solution. Fluorescence from NADH is followed at room temperature during 20 minutes in a fluorescent plate reader (excitation at 340 nm; emission at 480 nm). IC50 values are determined using initial velocities of NADH consumption. • Quémard A, Sacchettini J C, Dessen A, et al. Enzymatic characterization of the target for isoniazid in Mycobacterium tuberculosis. Biochemistry 1995; 34:8235-41. Results of the Mycobacterium tuberculosis InhA Inhibition Assay (Enzyme Assay)

Read-outs that look alike come from different tables or passages of the source. Some results are limits rather than exact numbers.

T1 sequence (P9WGR1 whole entry, looked up): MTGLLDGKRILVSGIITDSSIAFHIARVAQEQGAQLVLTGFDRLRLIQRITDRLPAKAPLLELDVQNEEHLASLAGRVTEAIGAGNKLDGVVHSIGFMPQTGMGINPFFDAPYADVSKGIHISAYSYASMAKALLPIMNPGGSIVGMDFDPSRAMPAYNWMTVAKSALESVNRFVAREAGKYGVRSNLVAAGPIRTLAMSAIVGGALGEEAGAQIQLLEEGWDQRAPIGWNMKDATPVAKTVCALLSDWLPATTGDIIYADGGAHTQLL

As usually defined, the MIC is the lowest concentration found to suppress growth. For orientation: IC50 means the concentration at which inhibition is half-maximal. In the case of `Cc1csc(C(C)(O)c2nnc(Nc3ccn(Cc4[nH]ccc(=O)c4F)n3)s2)n1` (stereo not shown) [Example 33, 3-fluoro-2-{[3-({5-[1-hydroxy-1-(4-methyl-1,3-thiazol-2-yl)ethyl]-1,3,4-thiadiazol-2-yl}amino)-1H-pyrazol-1-yl]methyl}-4(1H)-pyridinone], the MIC in assay [1] was greater than 10 µM. The IC50 against InhA (IC50 value) was greater than 1150 nM.

In assay [1], `Cc1csc(C(C)c2nnc(Nc3ccn(Cc4ncccc4F)n3)s2)n1` (stereo not shown) [Example 34, N-{1-[(3-fluoro-2-pyridinyl)methyl]-1H-pyrazol-3-yl}-5-[1-(4-methyl-1,3-thiazol-2-yl)ethyl]-1,3,4-thiadiazol-2-amine] returned an MIC of no more than 4 µM. Moreover, the IC50 at InhA (read-out: IC50 value) is no more than 125 nM.

Consider `Cc1cc(C)n(C(C)c2nnc(Nc3ccn(C(C)c4ncccc4F)n3)s2)n1` (stereo not shown) [Example 35, 5-[1-(3,5-dimethyl-1H-pyrazol-1-yl)ethyl]-N-{1-[1-(3-fluoro-2-pyridinyl)ethyl]-1H-pyrazol-3-yl}-1,3,4-thiadiazol-2-amine], for which the MIC in assay [1] is greater than 10 µM. On InhA (read-out: IC50 value), the IC50 is no more than 121 nM.

`CCOc1cccc(Cn2ccc(Nc3nnc(C(C)n4nc(C)cc4C)s3)n2)n1` (stereo not shown) [Example 36, 5-[1-(3,5-dimethyl-1H-pyrazol-1-yl)ethyl]-N-(1-{[6-(ethyloxy)-2-pyridinyl]methyl}-1H-pyrazol-3-yl)-1,3,4-thiadiazol-2-amine] displayed an MIC in assay [1] greater than 10 µM. For the same compound, at InhA (read-out: IC50 value), the IC50 is no more than 118 nM.

`Cc1csc(C(C)(O)c2nnc(Nc3ccn(Cc4nccc(C)c4F)n3)s2)n1` (stereo not shown) [Example 37, 1-[5-({1-[(3-fluoro-4-methyl-2-pyridinyl)methyl]-1H-pyrazol-3-yl}amino)-1,3,4-thiadiazol-2-yl]-1-(4-methyl-1,3-thiazol-2-yl)ethanol] had an MIC in assay [1] of no more than 4 µM. Besides, the IC50 on InhA (read-out: IC50 value) was no more than 116 nM.

Turning to `Cc1csc(C(C)(O)c2nnc(Nc3nn(Cc4csc(C)n4)c4ccccc34)s2)n1` (stereo not shown) [Example 45, 1-(4-methyl-1,3-thiazol-2-yl)-1-[5-({1-[(2-methyl-1,3-thiazol-4-yl)methyl]-1H-indazol-3-yl}amino)-1,3,4-thiadiazol-2-yl]ethanol], the MIC in assay [1] is greater than 10 µM. This compound yielded an IC50 against InhA (IC50 value) of 213 to 1060 nM.

Compound `Cc1ccn(C(C)c2nnc(Nc3nn(Cc4csc(C)n4)c4ccccc34)s2)n1` (stereo not shown) [Example 46, N-{5-[1-(3-methyl-1H-pyrazol-1-yl)ethyl]-1,3,4-thiadiazol-2-yl}-1-[(2-methyl-1,3-thiazol-4-yl)methyl]-1H-indazol-3-amine] gave an MIC in assay [1] greater than 10 µM. For the same compound, on InhA (IC50 value), the IC50 is greater than 1150 nM.

With `CCc1csc(C(C)(O)c2nnc(Nc3ccn(Cc4csc(C)n4)n3)s2)n1` (stereo not shown) [Example 47, 1-(4-ethylthiazol-2-yl)-1-(5-((1-((2-methylthiazol-4-yl)methyl)-1H-pyrazol-3-yl)amino)-1,3,4-thiadiazol-2-yl)ethanol], in assay [1], the MIC is no more than 1 µM. The compound further yielded an IC50 at InhA (IC50 value) of no more than 115 nM.
